Compared with CCc1ccc2c(c1)C=Cc1oc(C)nc1C2c1cn(Cc2cccc(C(=O)Nc3n[nH]c(C(F)(F)F)n3)c2)c(=O)[nH]c1=S (stereo not drawn), FC(F)(F)c1cccc(CSc2nnc(-c3ccc4ncccc4c3)o2)c1 is higher in melting point: 142 to 145 °C for the first, 158 to 159 °C for the second.

Compared with ClCCCCOc1ccc2ccccc2c1, c1ccc2oc(COc3ccc(CCCn4ccnc4)cc3)nc2c1 is lower in melting point: 112 °C for the first, 81 to 82 °C for the second.

Compared with CN1Cc2c(Br)ncn2-c2ccc(F)cc2C1=O, COC(C)(C)C#Cc1ncn2c1CN(C)C(=O)c1cc(F)ccc1-2 is lower in melting point: 200 °C for the first, 149 to 150 °C for the second.

Compared with Cc1cccc(C(=O)c2nc(-c3ccccn3)no2)c1, Cc1ccc2nc(C(=O)Nc3ccccn3)[nH]c2c1 is higher in melting point: 127 to 128 °C for the first, 230 °C for the second.

First: COc1ccc(NCCNC(=O)c2ccc(OCC=C(C)CCC=C(C)C)cc2)cn1
Second: CN(C)c1ccc(N=Nc2ccccc2C(=O)NCCNC(=O)CI)cc1
The melting point of the first is lower: 97.9 to 99.3 °C for the first, 140 to 142 °C for the second.

First: COc1cc(N2CCN(Cc3ccccc3)CC2)c2nccc(C)c2c1
Second: N#Cc1c(N)nc2ccc(N3CCN(Cc4ccccc4)CC3)cc2c1N=Cc1ccccc1
The melting point of the first is lower: 154 to 155 °C for the first, 202 °C for the second.

First: CC[C@H](C)[C@H](NC(=O)O[C@@H](CC(C)C)C(=O)OCc1ccccc1)C(N)=O
Second: CN(C)C(=O)COc1ccc2c(c1)C[C@@H](NC(=O)OCc1ccccc1)CC2
The melting point of the first is higher: 140 to 141 °C for the first, 117 to 118 °C for the second.

Compared with Cc1cc(C)cc(N2CCN(Cc3ncn(C(c4ccccc4)(c4ccccc4)c4ccccc4)c3C)C2=O)c1, O=c1c2ccccc2nc(-c2cc(-c3ccccc3)c(N3CCOCC3)s2)n1-c1ccccc1 is higher in melting point: 199 to 202 °C for the first, 218 to 220 °C for the second.

First: COC(=O)CCc1cc(C)c(OP(Oc2c(C)cc(CCC(=O)OC)cc2C(C)(C)C)Oc2c(C)cc(CCC(=O)OC)cc2C(C)(C)C)c(C(C)(C)C)c1
Second: COCc1nc2c(N)nc3cc(CCC(=O)N4CCS(=O)(=O)CC4)ccc3c2n1CC(C)(C)O
The melting point of the first is lower: 113 to 114 °C for the first, 190 to 192 °C for the second.

First: Nc1cccc(C(=O)c2ccc(-c3ccc(C(=O)c4cccc(N)c4)cc3)cc2)c1
Second: c1ccc(-c2ccc(-c3nc4n(n3)CCc3ccccc3-4)cc2)cc1
The melting point of the first is higher: 217 to 218 °C for the first, 143 to 144 °C for the second.

First: CCCCCCCCCCCC(O)CC(=O)C(CCCCCC)C(=O)OC (stereo not drawn)
Second: CCCCCCCCCCCCOCCCNC(=O)c1cc(OCC(=O)O)c2ccccc2c1O
The melting point of the first is lower: 38 to 39 °C for the first, 150 °C for the second.

First: O=C1NC(=O)C(=Cc2ccc(OCCCN3Cc4ccccc4C3=O)cc2)S1
Second: CCn1ncc2c(NCc3ccc(OCCN4CCOCC4)cc3)c3ccccc3nc21
The melting point of the first is higher: 260 to 263 °C for the first, 170 to 172 °C for the second.

Compared with CCN(C1CC(C)(C)Oc2ccc(OCc3cc(OC)ccn3)cc21)S(C)(=O)=O (stereo not drawn), Cc1ccc(S(=O)(=O)OCC2COc3ccc4nc(C)c(C)nc4c3O2)cc1 (stereo not drawn) is higher in melting point: 87 to 89 °C for the first, 153 to 155 °C for the second.

First: CCCC(C)C(=O)N1CC(NC(=O)Nc2cccc(C(=O)O)c2)C(=O)N(CC(=O)c2ccccc2C)c2cc(C)ccc21 (stereo not drawn)
Second: CCCCc1nc(S(=O)(=O)c2ccccc2)c(C(=O)O)n1Cc1ccc(-c2ccccc2C(=O)O)cc1
The melting point of the first is higher: 227 to 229 °C for the first, 140 °C for the second.

First: Cn1cc(C2CCC(=O)C2)c2cc(C#N)ccc21 (stereo not drawn)
Second: CCn1c(=O)c(C#N)c(N2CCCC2)c2ccc(C)nc21
The melting point of the first is lower: 167 to 168 °C for the first, 211 to 213 °C for the second.

Compared with CCOC(=S)c1c(COC)nc2cc(F)c(F)cc2c1O, CCOC(=O)Cn1nc(-c2cc(Cl)ccc2O)nc1-c1cc(Cl)ccc1O is higher in melting point: 126 to 129 °C for the first, 195 to 200 °C for the second.

First: C[Si](C)(C)OC(CCl)(Cn1ccnc1)c1ccc(F)cc1F (stereo not drawn)
Second: Cc1cc(F)ccc1-c1nc(NCCO)nc2c1CCC(=O)N2c1ccccc1F
The melting point of the first is lower: 88 to 89 °C for the first, 120 to 124 °C for the second.

First: O=c1n(CCCCN2CCN(c3ccccc3)CC2)nc2n1-c1ccccc1OC2
Second: c1ccc(CCN2CCN(c3nc4cccc5c4n3CCC5)CC2)cc1
The melting point of the first is lower: 85 to 87 °C for the first, 112 to 113 °C for the second.

Compared with NC(=O)C1CCc2cc(S(=O)(=O)Nc3ccc(-n4nnn(CCCC5CCCC5)c4=O)cc3)ccc2O1 (stereo not drawn), COc1ccc(C2=NN(CC(=O)c3ccc4ccccc4c3)C(=O)[C@H]3CCCC[C@@H]23)cc1OC (relative stereo) is lower in melting point: 202 to 205 °C for the first, 89 to 90 °C for the second.

First: O=c1[nH]c2ccccc2cc1-c1csc(-c2ccncc2)n1
Second: O=C1CC2=C(CCN1)c1ccccc1Sc1ccccc12
The melting point of the first is higher: 241 to 243 °C for the first, 195 to 198 °C for the second.

First: CN(C)CC(=O)Nc1ccc(Cl)c(C(=O)Nc2cccc3c4c(oc23)CCCC4)c1Cl
Second: O=C(Nc1ccc(Cl)nc1)N1CCc2ccccc2CC1
The melting point of the first is higher: 207 °C for the first, 170 to 172 °C for the second.

First: COc1cc(C(=CC#N)c2ccc(OC)c(OC)c2)ccc1N
Second: COC(=O)c1cc(C(=O)c2ccc(OC)c3ccccc23)cn1C
The melting point of the first is lower: 104 to 106 °C for the first, 162 °C for the second.

Compared with CC1(C)CC(=O)C2=C(C1)NC1=C(C(=O)CC(C)(C)C1)C2c1ccc(Cl)c(OCc2ccccc2)c1, CCOC(=O)C1C(=O)Nc2ccccc2SC1c1ccc(Cl)cc1 (stereo not drawn) is lower in melting point: 243 to 244 °C for the first, 206 °C for the second.

First: O=C1NC(=O)C(c2c[nH]c3cc(F)ccc23)=C1C1=COc2ccccc2O1
Second: COC(=O)c1ccc2[nH]c(C#N)c(-c3ccccc3)c2c1
The melting point of the first is lower: 203 °C for the first, 250 to 253 °C for the second.

Compared with O=C(O)c1cnc(-c2nnn[nH]2)cc1-c1ccccc1, CC(C)CC(=O)c1cc(-c2ccccc2)no1 is lower in melting point: greater than 300 °C for the first, 62 to 64 °C for the second.

Compared with Cc1nc2ccccc2n1Cc1cc([N+](=O)[O-])ccc1O, N#Cc1cc([N+](=O)[O-])ccc1Oc1ccc(Oc2ccccc2)cc1 is lower in melting point: greater than 260 °C for the first, 150 to 152 °C for the second.

First: CC1(C(=O)C(C(O)C(Cl)(Cl)CCl)n2cncn2)CC1 (stereo not drawn)
Second: CC1(C)OC[C@@H](COn2cnc3c(Cl)nc(N)nc32)O1
The melting point of the first is higher: 182 to 186 °C for the first, 118 to 120 °C for the second.

First: CC(=N)NS(=O)(=O)C=Cc1ccc(Cl)c(Cl)c1
Second: CCCCCC(=O)NS(=O)(=O)CCc1cc(OCCCC)nn1Cc1ccc(Cl)cc1Cl
The melting point of the first is higher: 198 °C for the first, 90 to 92 °C for the second.

First: CC(C)C(NC(=O)C(C)(C)C)C(C)C
Second: CC(C)(C)OC1OC(=O)CC(C)(C)C1OS(C)(=O)=O (stereo not drawn)
The melting point of the first is higher: 107 to 109 °C for the first, 64 °C for the second.

First: Cc1cccc(NC(=O)NC(C(=O)N(c2ccccc2)c2ccccc2)c2ccccc2)c1 (racemic)
Second: Cc1cccc(CN(CCC(=O)O)c2nc(NC(=O)Nc3ccccc3O)nc(Nc3ccccc3-c3ccccc3)n2)c1
The melting point of the first is higher: 181 °C for the first, 122 to 124 °C for the second.

First: NC(=O)OCCN1Cc2ccccc2CCO1
Second: NC(=O)c1ccc(-c2n[nH]c3c2Cc2ccccc2-3)cc1
The melting point of the first is lower: 110 to 111 °C for the first, 290 to 293 °C for the second.

First: O=C(c1cccnc1)N1CCC(c2ccc(Cl)cc2)=N1
Second: O=C(c1ccc([N+](=O)[O-])cc1)N1CCCCc2ncccc21
The melting point of the first is lower: 125 to 126 °C for the first, 231 to 233 °C for the second.

Compared with OC1CSC(Oc2ccc(-c3cncc(F)c3)nc2)C(O)C1O (stereo not drawn), O=CC=C(c1cccc(F)c1)c1cccc(F)c1 is lower in melting point: 207 to 217 °C for the first, 51 to 53 °C for the second.

Compared with CCC1(C)Cc2cc(O)c(Cl)c(Cl)c2C1=O (stereo not drawn), CCn1c(=N)c(-c2c(Cl)cccc2Cl)cc2cnc(SC)nc21 is higher in melting point: 215 to 217 °C for the first, 217 to 219 °C for the second.

Compared with CC(=O)Oc1ccc(CC2SC(=O)NC2=O)cc1 (stereo not drawn), CCON=C(CC)C1=C(O)CC(c2ccc(C(=O)OC)cc2)CC1=O (stereo not drawn) is lower in melting point: 115 to 117 °C for the first, 75 to 76 °C for the second.

Compared with Cc1cccc(/C=C/c2nc(COc3ccc(CCCCc4c[nH]c(CC(O)CO)n4)cc3)co2)c1 (stereo not drawn), Cc1nc2cc(Oc3ncccc3C(=O)NCc3ccc(C(C)(C)O)cc3)ccc2s1 is higher in melting point: 102 to 104 °C for the first, 124 to 126 °C for the second.

Compared with O=c1ncc(Cl)cn1COCc1cnsn1, CCOC(=O)c1ccc(CC#N)cc1Cl is lower in melting point: 106 °C for the first, 60 °C for the second.

First: Cc1nn(C)c(C)c1C(=O)NC1CCCCC1
Second: Cc1nc(N)c2nc(C)n(CCNC(=O)N3CCOCC3)c2c1C
The melting point of the first is lower: 185 to 186 °C for the first, 219 to 221 °C for the second.

First: CN1CCC(c2c[nH]c3ccc(NC(=O)c4ccncc4)nc23)CC1
Second: CCCCNC(=S)N1CCC(c2nc(-c3ccc(-c4ccccc4)cc3)c[nH]2)CC1
The melting point of the first is higher: 126 to 128 °C for the first, 102 to 103 °C for the second.

First: S=C1Nc2ccccc2Sc2ccccc21
Second: O=S(=O)(CC(O)(CBr)c1cccc(Br)c1)c1ccccc1 (stereo not drawn)
The melting point of the first is higher: 245 to 246 °C for the first, 132 °C for the second.

Compared with CCc1nc(N)nc(O)c1I, CCCCn1c(=O)n(C2OC(CO)C(O)C2O)c2nc(N)[nH]c(=O)c21 (stereo not drawn) is higher in melting point: 199 to 200 °C for the first, greater than 230 °C for the second.

Compared with CCCN(CCC)c1c([N+](=O)[O-])cc(S(=O)(=O)N(C)SC)cc1[N+](=O)[O-], NCCNc1cc(Cl)cc(NCCN)c1[N+](=O)[O-] is lower in melting point: 119 to 121 °C for the first, 113 °C for the second.

Compared with CC(=O)C(=NNc1ccccc1)Sc1ccc(Cl)cc1, COC(=O)c1ccc(Cl)cc1NC(=O)CSc1ccc([N+](=O)[O-])cc1 is higher in melting point: 111 to 113 °C for the first, 134 to 137 °C for the second.

Compared with CCCCOCC(O)COc1cc(C)c(OCC(O)COCCCC)cc1C (stereo not drawn), COc1csc2ccc(C(=O)CC(=O)C3CC3)c(OC)c12 is higher in melting point: less than 30 °C for the first, 77.5 to 80 °C for the second.

First: COC(=O)C(N)C(C)(C)SSc1ccccc1C(=O)Nc1ccc(S(N)(=O)=O)cc1 (stereo not drawn)
Second: Cc1cccc(NS(=O)(=O)c2cc(S(=O)(=O)Nc3cccc(C)c3)c3cc(O)ccc3c2)c1
The melting point of the first is higher: 140 to 142 °C for the first, 115 to 117 °C for the second.

First: COc1cc(N)c(CCN2CCN(c3nsc4ccccc34)CC2)cc1OC
Second: Nc1nc(-c2ccc(CCCCN3CCN(c4nsc5ccccc45)CC3)cc2)cs1
The melting point of the first is lower: 55 °C for the first, 258 to 261 °C for the second.

First: CCCCNCP(=O)(O)O
Second: COC(=O)Cc1n[nH]c(C)c1[N+](=O)[O-]
The melting point of the first is higher: 236 to 240 °C for the first, 132 to 133 °C for the second.

First: N#Cc1c(NC(=O)C2CCCCC2)sc(-c2ccccc2)c1C#N
Second: COC(=NS(=O)(=O)c1nc(-c2ccccc2C)ns1)C(C)C
The melting point of the first is higher: 208 to 212 °C for the first, 116 to 118 °C for the second.

Compared with CC(C)n1c(CCN2CCN(c3cccc(C(F)(F)F)c3)CC2)nc2cc(Br)c3ccccc3c21, O=C(O)c1ncn2c(C(F)(F)F)cc(-c3ccc(C(F)(F)F)cc3)nc12 is higher in melting point: 161 to 162 °C for the first, 231 °C for the second.

Source: a melting point compilation (Tetko et al.; mined from patent text by program, amines drawn as free bases though some values may be those of a salt)
